Experimental data reported in PubChem BioAssay AID330 (DTP/NCI, 2004).
Several values for one entry are separate records, joined by “and”; a condition that tells them apart may be missing. Equal values may be shown once. Toxic doses and inconclusive results are not listed.

System: P388 leukemia ip, CD2F1 mice, survival T/C
Assay: NCI In Vivo Anticancer Drug Screen. Data for tumor model P388 Leukemia (intraperitoneal) in CD2F1 (CDF1) mice
Details: endpoint: median survival time, higher = longer survival
Procedure, shortened: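 Mice carrying the transplanted tumor received test compound or vehicle. Survival was recorded in each group, and the value is the treated-group measurement divided by that of the vehicle-treated control group.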

[1] = dose: 50.0 mg/kg/injection, schedule: Q01DX005 (ip), vehicle: Klucel (hydroxypropylcellulose) (HPC)
[2] = dose: 100.0 mg/kg/injection, schedule: Q01DX005 (ip), vehicle: Klucel (hydroxypropylcellulose) (HPC)
[3] = dose: 200.0 mg/kg/injection, schedule: Q01DX005 (ip), vehicle: Klucel (hydroxypropylcellulose) (HPC)
[4] = dose: 12.5 mg/kg/injection, schedule: Q01DX009 (ip), vehicle: saline
[5] = dose: 50.0 mg/kg/injection, schedule: Q01DX009 (ip), vehicle: saline
[6] = dose: 100.0 mg/kg/injection, schedule: Q01DX009 (ip), vehicle: saline
[7] = dose: 60.0 mg/kg/injection, schedule: Q01DX005 (ip), vehicle: saline with Tween-80
[8] = dose: 120.0 mg/kg/injection, schedule: Q01DX005 (ip), vehicle: saline with Tween-80
[9] = dose: 60.0 mg/kg/injection, schedule: Q01DX005 (ip), vehicle: Klucel (hydroxypropylcellulose) (HPC)
[10] = dose: 120.0 mg/kg/injection, schedule: Q01DX005 (ip), vehicle: Klucel (hydroxypropylcellulose) (HPC)
[11] = dose: 240.0 mg/kg/injection, schedule: Q01DX005 (ip), vehicle: Klucel (hydroxypropylcellulose) (HPC)
[12] = dose: 50.0 mg/kg/injection, schedule: Q04DX002 (ip), vehicle: saline with Tween-80
[13] = dose: 100.0 mg/kg/injection, schedule: Q01DX001 (ip), vehicle: saline with Tween-80
[14] = dose: 200.0 mg/kg/injection, schedule: Q01DX001 (ip), vehicle: saline with Tween-80
[15] = dose: 400.0 mg/kg/injection, schedule: Q01DX001 (ip), vehicle: saline with Tween-80
[16] = dose: 200.0 mg/kg/injection, schedule: Q04DX003 (ip), vehicle: Klucel (hydroxypropylcellulose) (HPC)
[17] = dose: 50.0 mg/kg/injection, schedule: Q01DX009 (ip), vehicle: Klucel (hydroxypropylcellulose) (HPC)
[18] = dose: 100.0 mg/kg/injection, schedule: Q01DX009 (ip), vehicle: Klucel (hydroxypropylcellulose) (HPC)
[19] = dose: 200.0 mg/kg/injection, schedule: Q01DX009 (ip), vehicle: Klucel (hydroxypropylcellulose) (HPC)
[20] = dose: 50.0 mg/kg/injection, schedule: Q01DX009 (ip), vehicle: saline with Tween-80
[21] = dose: 100.0 mg/kg/injection, schedule: Q01DX009 (ip), vehicle: saline with Tween-80

## O=C(Nc1ccccc1)N1CC2(CN1)CNN(C(=O)Nc1ccccc1)C2
dose: 50.0 mg/kg/injection, schedule: Q01DX001 (ip), vehicle: Klucel (hydroxypropylcellulose) (HPC)
  T/C: 103 % of control
dose: 100.0 mg/kg/injection, schedule: Q01DX001 (ip), vehicle: Klucel (hydroxypropylcellulose) (HPC)
  T/C: 100 % of control
dose: 200.0 mg/kg/injection, schedule: Q01DX001 (ip), vehicle: Klucel (hydroxypropylcellulose) (HPC)
  T/C: 91 % of control

## C/C(=N\NC(=S)N1CCCC1)c1ccc[nH]1
[1]
  T/C: 102 % of control
[2]
  T/C: 114 % of control
[3]
  T/C: 89 % of control

## CCn1c2ccc(C(=O)CCCN(C)C)cc2c2cc(C(=O)CCCN(C)C)ccc21
[4]
  T/C: 118 % of control and 122 % of control
dose: 25.0 mg/kg/injection, schedule: Q01DX009 (ip), vehicle: saline
  T/C: 108 % of control and 116 % of control

## CCCCOC(=O)NC(=O)c1cc2cc(Cl)ccc2oc1=O
dose: 50.0 mg/kg/injection, schedule: Q01DX005 (ip), vehicle: saline with Tween-80
  T/C: 95 % of control
dose: 100.0 mg/kg/injection, schedule: Q01DX005 (ip), vehicle: saline with Tween-80
  T/C: 88 % of control

## [O-][n+]1c2ccccc2nc2ccccc21
[1]
  T/C: 115 % of control
[2]
  T/C: 110 % of control
[3]
  T/C: 100 % of control

## CCCN(CCC)CN(CCC)CCC
[5]
  T/C: 106 % of control
[6]
  T/C: 105 % of control

## Cc1c2oc3c(C)ccc(C(=O)NCCCN4CCN(C)CC4)c3nc-2c(C(=O)NCCCN2CCN(C)CC2)c(N)c1=O
dose: 6.25 mg/kg/injection, schedule: Q04DX003 (ip), vehicle: saline with Tween-80
  T/C: 106 % of control
dose: 12.5 mg/kg/injection, schedule: Q04DX003 (ip), vehicle: saline with Tween-80
  T/C: 104 % of control
dose: 25.0 mg/kg/injection, schedule: Q04DX003 (ip), vehicle: saline with Tween-80
  T/C: 114 % of control and 117 % of control
dose: 100.0 mg/kg/injection, schedule: Q04DX003 (ip), vehicle: saline with Tween-80
  T/C: 123 % of control

## Cc1cc2c(=O)c(C(=O)O)c[nH]c2cc1-n1cccc1
[7]
  T/C: 97 % of control
[8]
  T/C: 100 % of control
dose: 240.0 mg/kg/injection, schedule: Q01DX005 (ip), vehicle: saline with Tween-80
  T/C: 102 % of control

## O=C(NCCCCN1CC1)C(=O)NCCCCN1CC1
dose: 0.78 mg/kg/injection, schedule: Q04DX003 (ip), vehicle: Klucel (hydroxypropylcellulose) (HPC)
  T/C: 120 % of control
dose: 3.12 mg/kg/injection, schedule: Q04DX003 (ip), vehicle: Klucel (hydroxypropylcellulose) (HPC)
  T/C: 162 % of control
dose: 6.25 mg/kg/injection, schedule: Q04DX003 (ip), vehicle: Klucel (hydroxypropylcellulose) (HPC)
  T/C: 178 % of control

## OC1COC(O)(CNCCc2c[nH]c3ccc(OCc4ccccc4)cc23)C(O)C1O (configuration not stated)
[9]
  T/C: 101 % of control
[10]
  T/C: 99 % of control
[11]
  T/C: 87 % of control

## O=C(Nc1c(Cl)cccc1Cl)OCCOc1ccc(Cl)cc1Cl
[9]
  T/C: 99 % of control
[10]
  T/C: 96 % of control
[11]
  T/C: 99 % of control

## C/C(=N\NC(N)=Nc1ccccc1)c1ccc2c(c1)Cc1ccccc1-2
dose: 25.0 mg/kg/injection, schedule: Q04DX002 (ip), vehicle: saline with Tween-80
  T/C: 103 % of control
[12]
  T/C: 94 % of control
dose: 100.0 mg/kg/injection, schedule: Q04DX002 (ip), vehicle: saline with Tween-80
  T/C: 104 % of control

## O=C(N/N=C/c1cc(Br)cc(Br)c1[O-])c1ccccc1.O=C(N/N=C/c1cc(Br)cc(Br)c1[O-])c1ccccc1.[Ni+2]
[13]
  T/C: 90 % of control
[14]
  T/C: 90 % of control
[15]
  T/C: 94 % of control

## CC(=N\NC(N)=S)/C(C)=N/Nc1ccccc1
dose: 100.0 mg/kg/injection, schedule: Q04DX003 (ip), vehicle: Klucel (hydroxypropylcellulose) (HPC)
  T/C: 106 % of control
[16]
  T/C: 100 % of control
dose: 400.0 mg/kg/injection, schedule: Q04DX003 (ip), vehicle: Klucel (hydroxypropylcellulose) (HPC)
  T/C: 100 % of control

## COc1ccc2c(c1[N+](=O)[O-])CCCC(Br)(Br)C2=O
[17]
  T/C: 107 % of control
[18]
  T/C: 107 % of control
[19]
  T/C: 108 % of control

## CC[NH-].CC[NH-].[Cl][Pt+2][Cl]
dose: 3.12 mg/kg/injection, schedule: Q01DX009 (ip), vehicle: saline
  T/C: 150 % of control
dose: 3.12 mg/kg/injection, schedule: Q01DX009 (ip), vehicle: suspension in saline
  T/C: 116 % of control
dose: 6.25 mg/kg/injection, schedule: Q01DX009 (ip), vehicle: saline
  T/C: 162 % of control
[4]
  T/C: 159 % of control
dose: 12.5 mg/kg/injection, schedule: Q01DX009 (ip), vehicle: suspension in saline
  T/C: 97 % of control

## Clc1ccc(N=C(c2ccncc2)c2cc(Cl)ccc2Cl)cc1
[20]
  T/C: 109 % of control
[21]
  T/C: 92 % of control

## Fc1nn2ccccc2c1C(F)(F)F
[1]
  T/C: 99 % of control
[2]
  T/C: 104 % of control
[3]
  T/C: 100 % of control

## O=NN1CCCNC1=O
dose: 12.5 mg/kg/injection, schedule: Q04DX003 (ip), vehicle: saline
  T/C: 118 % of control
dose: 20.0 mg/kg/injection, schedule: Q01DX009 (ip), vehicle: saline with Tween-80
  T/C: 163 % of control
dose: 37.5 mg/kg/injection, schedule: Q01DX009 (ip), vehicle: saline with Tween-80
  T/C: 163 % of control
dose: 40.0 mg/kg/injection, schedule: Q01DX009 (ip), vehicle: saline with Tween-80
  T/C: 231 % of control
dose: 50.0 mg/kg/injection, schedule: Q04DX003 (ip), vehicle: saline
  T/C: 172 % of control
dose: 66.0 mg/kg/injection, schedule: Q04DX003 (ip), vehicle: saline
  T/C: 179 % of control
dose: 75.0 mg/kg/injection, schedule: Q01DX009 (ip), vehicle: saline with Tween-80
  T/C: 86 % of control
dose: 100.0 mg/kg/injection, schedule: Q04DX003 (ip), vehicle: saline
  T/C: 191 % of control and 216 % of control

## Nc1nc2c(c(-c3nc(N)nc4c3Cc3ccccc3-4)n1)Cc1ccccc1-2
[7]
  T/C: 98 % of control
[8]
  T/C: 100 % of control

## CCOC(=O)C(Cc1csc2ccc(Cl)cc12)(NC(C)=O)C(=O)OCC
[17]
  T/C: 96 % of control
[18]
  T/C: 96 % of control
[19]
  T/C: 94 % of control

## NS(=O)(=O)c1ccc(NC(=O)Oc2ccc([N+](=O)[O-])cc2)cc1
[13]
  T/C: 100 % of control
[14]
  T/C: 100 % of control
[15]
  T/C: 104 % of control

## N#CC1=C(C#N)C(=O)C(Br)=C(Br)C1=O
dose: 12.5 mg/kg/injection, schedule: Q01DX005 (ip), vehicle: Klucel + Tween-80
  T/C: 108 % of control
dose: 25.0 mg/kg/injection, schedule: Q01DX005 (ip), vehicle: Klucel + Tween-80
  T/C: 106 % of control
dose: 50.0 mg/kg/injection, schedule: Q01DX005 (ip), vehicle: Klucel + Tween-80
  T/C: 108 % of control

## CN=C(N)N/N=C(\C)c1ccc2ccc3ccccc3c2c1
[12]
  T/C: 105 % of control

## CCCCCCNC(=S)Nc1ccc2cc(C)ccc2n1
[17]
  T/C: 91 % of control
[18]
  T/C: 91 % of control
[19]
  T/C: 94 % of control

## O=C1OCC23CC(=O)C(O)(c4oc(CO)cc(=O)c4O)C(CC12)O3 (configuration not stated)
dose: 25.0 mg/kg/injection, schedule: Q01DX009 (ip), vehicle: saline with Tween-80
  T/C: 97 % of control
[20]
  T/C: 100 % of control
[21]
  T/C: 100 % of control

## CN(C)N=Nc1cn[nH]c1C(N)=O
dose: 50.0 mg/kg/injection, schedule: Q04DX003 (ip), vehicle: Klucel (hydroxypropylcellulose) (HPC)
  T/C: 109 % of control
[16]
  T/C: 161 % of control and 163 % of control

## CC(SC(C)C(=O)N/N=C/c1ccc(C#N)cc1)C(=O)N/N=C\c1ccc(C#N)cc1 (configuration not stated)
dose: 100.0 mg/kg/injection, schedule: Q01DX009 (ip), vehicle: suspension in saline
  T/C: 97 % of control
dose: 200.0 mg/kg/injection, schedule: Q01DX009 (ip), vehicle: suspension in saline
  T/C: 101 % of control
dose: 400.0 mg/kg/injection, schedule: Q01DX009 (ip), vehicle: suspension in saline
  T/C: 90 % of control

## CCOC([O-])=N/C(C)=N/[n+]1ccccc1C
[5]
  T/C: 107 % of control
[6]
  T/C: 104 % of control
dose: 200.0 mg/kg/injection, schedule: Q01DX009 (ip), vehicle: saline
  T/C: 107 % of control
